Results reported in patent US12448369B2 (Edgewise Therapeutics, Inc., priority 2023, dated 2025).

How the values were obtained:
[1] = tested on: Rabbit Psoas myofibrils (skeletal myosin ATPase); experiment: Myofibril ATPase assay, rabbit psoas (skeletal) myofibrils; assay type: biochemical; conditions: rabbit psoas myofibrils
How it was run: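 Readout: A340 decline from NADH oxidation, PK/LDH-coupled to ADP release; kinetic reads over 75 min. Buffer: pCa (PIPES, CaCl2, EGTA), pH 7.0. Linear-regression slopes vs vehicle, 4PL fit; reported as concentration giving 75% (Y75) or 125% (Y125) of vehicle activity.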

[2] = target: T1, Porcine ventricle myofibrils (ventricular myosin ATPase) (Sus scrofa, UniProt P79293); experiment: Myofibril ATPase assay, porcine ventricle myofibrils; assay type: biochemical, porcine (Yucatan minipigs); conditions: porcine ventricle myofibrils
T1 construct: Myofibrils from porcine cardiac muscle was isolated from the left ventricle of Yucatan minipigs; tissue Exemplar Genetics; host or cells: left ventricle of Yucatan minipigs, myofibrils prepared in house
T1 sequence (P79293 whole entry): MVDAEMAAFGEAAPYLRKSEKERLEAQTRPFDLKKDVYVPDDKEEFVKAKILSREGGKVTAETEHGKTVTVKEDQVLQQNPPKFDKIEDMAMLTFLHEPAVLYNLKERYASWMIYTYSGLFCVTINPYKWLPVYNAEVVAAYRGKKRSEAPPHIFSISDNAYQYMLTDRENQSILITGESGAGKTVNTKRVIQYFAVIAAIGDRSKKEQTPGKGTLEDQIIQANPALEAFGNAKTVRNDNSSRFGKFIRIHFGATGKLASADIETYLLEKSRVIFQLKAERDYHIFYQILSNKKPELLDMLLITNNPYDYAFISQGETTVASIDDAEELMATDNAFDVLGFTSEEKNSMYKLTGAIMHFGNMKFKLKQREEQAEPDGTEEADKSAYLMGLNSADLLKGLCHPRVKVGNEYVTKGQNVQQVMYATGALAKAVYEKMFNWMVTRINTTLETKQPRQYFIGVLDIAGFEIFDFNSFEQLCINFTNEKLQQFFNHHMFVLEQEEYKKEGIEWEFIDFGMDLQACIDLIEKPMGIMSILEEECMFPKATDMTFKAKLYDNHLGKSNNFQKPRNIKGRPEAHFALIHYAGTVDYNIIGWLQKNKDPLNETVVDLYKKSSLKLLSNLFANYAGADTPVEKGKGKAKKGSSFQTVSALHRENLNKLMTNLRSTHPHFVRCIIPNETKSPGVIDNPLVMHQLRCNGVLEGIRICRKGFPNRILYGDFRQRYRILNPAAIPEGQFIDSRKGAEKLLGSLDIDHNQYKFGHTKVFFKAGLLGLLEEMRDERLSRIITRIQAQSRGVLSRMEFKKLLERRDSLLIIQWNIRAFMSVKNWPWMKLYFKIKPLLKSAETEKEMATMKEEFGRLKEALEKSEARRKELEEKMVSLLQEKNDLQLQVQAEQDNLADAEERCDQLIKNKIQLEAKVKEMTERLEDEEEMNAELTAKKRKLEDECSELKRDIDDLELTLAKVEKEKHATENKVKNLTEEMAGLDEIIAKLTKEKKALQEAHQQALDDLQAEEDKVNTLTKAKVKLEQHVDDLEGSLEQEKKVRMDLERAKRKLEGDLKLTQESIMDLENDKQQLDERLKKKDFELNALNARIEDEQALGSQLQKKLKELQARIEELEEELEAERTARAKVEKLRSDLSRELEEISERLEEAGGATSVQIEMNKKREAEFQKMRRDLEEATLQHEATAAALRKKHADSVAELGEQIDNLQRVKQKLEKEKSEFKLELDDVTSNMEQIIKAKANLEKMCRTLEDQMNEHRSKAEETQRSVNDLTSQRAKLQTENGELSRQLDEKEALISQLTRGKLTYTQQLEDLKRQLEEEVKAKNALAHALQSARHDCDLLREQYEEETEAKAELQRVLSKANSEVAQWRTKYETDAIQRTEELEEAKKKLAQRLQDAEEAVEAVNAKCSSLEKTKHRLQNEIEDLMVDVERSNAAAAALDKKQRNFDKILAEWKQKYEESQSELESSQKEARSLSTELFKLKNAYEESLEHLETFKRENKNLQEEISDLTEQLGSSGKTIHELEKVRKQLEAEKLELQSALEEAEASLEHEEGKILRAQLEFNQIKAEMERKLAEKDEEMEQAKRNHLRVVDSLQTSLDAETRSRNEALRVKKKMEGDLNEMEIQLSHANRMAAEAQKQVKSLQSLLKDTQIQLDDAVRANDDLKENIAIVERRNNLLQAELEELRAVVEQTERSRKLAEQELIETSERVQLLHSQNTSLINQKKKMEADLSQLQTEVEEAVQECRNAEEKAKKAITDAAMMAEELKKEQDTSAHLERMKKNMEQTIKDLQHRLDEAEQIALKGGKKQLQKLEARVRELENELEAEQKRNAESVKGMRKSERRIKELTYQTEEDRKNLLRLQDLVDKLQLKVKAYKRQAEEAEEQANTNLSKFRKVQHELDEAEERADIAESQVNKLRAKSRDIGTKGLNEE
How it was run: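 ATPase activity of porcine left-ventricular myofibrils is tracked as the slope of NADH loss at 340 nm through a PK/LDH couple. Values are the concentrations that bring activity to 75% (inhibitors) or 125% (activators) of vehicle.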

[3] = tested on: Porcine atria myofibrils (atrial myosin ATPase); experiment: Myofibril ATPase assay, porcine atria myofibrils; assay type: biochemical; conditions: porcine atria myofibrils
How it was run: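 Coupled PK-LDH readout, NADH loss at 340 nm, kinetic 75 min. Porcine atria myofibrils, pCa buffer (PIPES/CaCl2/EGTA, pH 7.0). Slopes (mAU/min) normalized to vehicle = 100%, 4-parameter fit; Y75 or Y125 reported.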

[4] = Y75 value (75% activity relative to no compound)

## Cc1nccc2[nH]c(=O)c(CC(=O)N[C@H](CO)Cc3ccccc3)c(C)c12 [compound 495]
[1]; Y75 value
  Skeletal EC25: 100.00 µM
[2]; Y75 value
  Ventricular EC25: 100000 nM
[3]; [4]
  Atrial EC25: 100000 nM

## Cc1c(CC(=O)N[C@@H](C)c2ncc(C#N)cc2F)c(=O)[nH]c2ccc(OC(F)(F)F)nc12 [compound 456]
[1]; Y75 value
  Skeletal EC25: 0.53 µM
[2]; Y75 value
  Ventricular EC25: 3690 nM
[3]; [4]
  Atrial EC25: 660 nM

## Cc1c(CC(=O)N[C@@H](C)c2ncc(C#N)cc2F)c(=O)[nH]c2cc(F)ccc12 [compound 1079]
[1]; Y75 value (no ‡ mark)
  Skeletal EC25: 0.14 µM
[2]; Y75 value (no ‡ mark)
  Ventricular EC25: 3040 nM
[3]; Y75 value (no ‡ mark)
  Atrial EC25: 440 nM

## Cc1nc(C#N)ncc1[C@H](C)NC(=O)Cc1c(C)c2c(F)c(F)ccc2[nH]c1=O [compound 1132]
[1]; Y75 value (no ‡ mark)
  Skeletal EC25: 0.02 µM
[2]; Y75 value (no ‡ mark)
  Ventricular EC25: 50 nM
[3]; Y75 value (no ‡ mark)
  Atrial EC25: 100 nM

## Cc1nc(C#N)cnc1[C@H](C)NC(=O)C1(c2cc3c(F)c(F)ccc3[nH]c2=O)CC1 (single isomer, unassigned) [compound 4826]
[1]; Y75 value (no ‡ mark)
  Skeletal EC25: 1.00 µM
[2]; Y75 value (no ‡ mark)
  Ventricular EC25: 10090 nM
[3]; Y75 value (no ‡ mark)
  Atrial EC25: 670 nM

## Cc1c(CC(=O)N[C@@H](C)c2ccc(F)cc2F)c(=O)[nH]c2ccnc(OCC(C)C)c12 [compound 371]
[1]; Y75 value
  Skeletal EC25: 0.37 µM
[2]; Y75 value
  Ventricular EC25: 100000 nM
[3]; [4]
  Atrial EC25: 3040 nM

## Cc1nccc2[nH]c(=O)c(CC(=O)N[C@H](C)c3ccc(O)cc3)c(C)c12 (single isomer, unassigned) [compound 328]
[1]; Y75 value
  Skeletal EC25: 100.00 µM
[2]; Y75 value
  Ventricular EC25: 100000 nM
[3]; [4]
  Atrial EC25: 100000 nM

## C[C@@H](NC(=O)[C@H](C)c1cc2c(F)c(F)ccc2[nH]c1=O)c1ncc(C#N)cc1F (single isomer, unassigned) [compound 2598]
[1]; ‡ Y125 value, not a Y75 value (125% activity relative to no compound)
  Skeletal EC25: 100.00‡ μM
[2]; Y75 value (no ‡ mark)
  Ventricular EC25: 1100 nM
[3]; Y75 value (no ‡ mark)
  Atrial EC25: 600 nM

## Cc1c(CC(=O)N[C@H](C)c2ncc(C#N)cn2)c(=O)[nH]c2ccc(F)cc12 [compound 1070]
[1]; Y75 value (no ‡ mark)
  Skeletal EC25: 2.50 µM
[2]; Y75 value (no ‡ mark)
  Ventricular EC25: 1720 nM
[3]; Y75 value (no ‡ mark)
  Atrial EC25: 220 nM

## C[C@H](NC(=O)Cc1cc2cc(F)ccc2[nH]c1=O)c1ccc(C#N)cn1 [compound 1126]
[1]; Y75 value (no ‡ mark)
  Skeletal EC25: 100.00 µM
[2]; Y75 value (no ‡ mark)
  Ventricular EC25: 100000 nM
[3]; Y75 value (no ‡ mark)
  Atrial EC25: 100000 nM

## Cc1c(CC(=O)N[C@@H](C)c2ccc(F)cc2F)c(=O)[nH]c2ccc(F)c(F)c12 [compound 116]
[1]; Y75 value (no ‡ mark)
  Skeletal EC25: 0.02 µM
[2]; Y75 value (no ‡ mark)
  Ventricular EC25: 130 nM
[3]; Y75 value (no ‡ mark)
  Atrial EC25: 40 nM

## Cc1c(CC(=O)N[C@@H](C)c2ccc(C#N)cc2F)c(=O)[nH]c2ccnc(C#N)c12 (single isomer, unassigned) [compound 283]
[1]; Y75 value
  Skeletal EC25: 0.01 µM
[2]; Y75 value
  Ventricular EC25: 100 nM
[3]; [4]
  Atrial EC25: 40 nM

## Cc1cc(F)cc(F)c1[C@H](C)NC(=O)Cc1c(C)c2c(C)nccc2[nH]c1=O (single isomer, unassigned) [compound 403]
[1]; Y75 value
  Skeletal EC25: 0.19 µM
[2]; Y75 value
  Ventricular EC25: 2080 nM
[3]; [4]
  Atrial EC25: 40230 nM

## CC#Cc1nccc2[nH]c(=O)c(CC(=O)N[C@@H](C)c3ccc(F)cc3F)c(C)c12 [compound 350]
[1]; Y75 value
  Skeletal EC25: 0.06 µM
[2]; Y75 value
  Ventricular EC25: 1990 nM
[3]; [4]
  Atrial EC25: 990 nM

## C[C@H](NC(=O)Cc1cc2c(F)cccc2[nH]c1=O)c1ccc(F)cc1F [compound 131]
[1]; Y75 value (no ‡ mark)
  Skeletal EC25: 0.02 µM
[2]; Y75 value (no ‡ mark)
  Ventricular EC25: 810 nM
[3]; Y75 value (no ‡ mark)
  Atrial EC25: 70 nM

## Cc1c(CC(=O)N[C@@H](C)c2cnc(C#N)nc2)c(=O)[nH]c2cc(F)c(F)cc12 (single isomer, unassigned) [compound 2075]
[1]; Y75 value (no ‡ mark)
  Skeletal EC25: 0.04 µM
[2]; Y75 value (no ‡ mark)
  Ventricular EC25: 520 nM
[3]; Y75 value (no ‡ mark)
  Atrial EC25: 70 nM

## CC[C@H](NC(=O)Cc1c(C)c2c(C)c(F)ccc2[nH]c1=O)c1ncc(C#N)cn1 (single isomer, unassigned) [compound 4834]
[1]; Y75 value (no ‡ mark)
  Skeletal EC25: 0.15 µM
[2]; Y75 value (no ‡ mark)
  Ventricular EC25: 640 nM
[3]; Y75 value (no ‡ mark)
  Atrial EC25: 490 nM

## Cc1ccccc1[C@@H](C)NC(=O)Cc1c(C)c2c(C)nccc2[nH]c1=O (single isomer, unassigned) [compound 326]
[1]; Y75 value
  Skeletal EC25: 100.00 µM
[2]; Y75 value
  Ventricular EC25: 100000 nM
[3]; [4]
  Atrial EC25: 100000 nM

## N#Cc1cc(F)c2c(c1)OC[C@@H]2NC(=O)C1(c2cc3c(F)c(F)ccc3[nH]c2=O)CC1 (single isomer, unassigned) [compound 4822]
[1]; Y75 value (no ‡ mark)
  Skeletal EC25: 0.08 µM
[2]; Y75 value (no ‡ mark)
  Ventricular EC25: 480 nM
[3]; Y75 value (no ‡ mark)
  Atrial EC25: 160 nM
